Here are results for seven compounds from US6699863B1, “Kinase inhibitors for the treatment of disease” (Allergan, Inc., priority 2002, dated 2004).

The subject of data set [1] is VEGF induced increases in intracellular calcium levels in HUVEC (human umbilical vein endothelial cells). Put plainly: VEGF Stimulated Ca++ Signal In vitro (FLIPR). The settings on record: VEGF stimulation 5 ng/mL, 30 min pre-incubation. It counts as cell-based. The procedure:
Automated FLIPR (Fluorometric Imaging Plate Reader) technology was used to screen for inhibitors of VEGF induced increases in intracellular calcium levels in fluorescent dye loaded endothelial cells. HUVEC (human umbilical vein endothelial cells) (Clonetics) were seeded in 96-well fibronectin coated black-walled plates overnight at 37° C./5%CO2. Cells were loaded with calcium indicator Fluo-4 for 45 minutes at 37° C. Cells were washed 4 times (Original Cell Wash, Labsystems) to remove extracellular dye. Test compounds were reconstituted in 100% DMSO and added to the cells to give a final DMSO concentration of 0.1%. For screening, cells were pre-incubated with test agents for 30 minutes, at a single concentration (10 μM) or at concentrations ranging from 0.01 to 10.0 μM followed by VEGF stimulation (5 ng/mL). Changes in fluorescence at 516 nm were measured simultaneously in all 96 wells using a cooled CCD camera. Data were generated by determining max-min fluorescence levels for unstimulated, stimulated, and drug treated samples. IC50 values for test compounds were calculated from % inhibition of VEGF stimulated responses in the absence of inhibitor.

The nature of the next data set: physchem. It counts as physicochemical. The note with it: buffer. The procedure:
The chemical stability of Example 12 of the invention has been studied using buffers at pH 1, pH 3 and pH 7. Example 12 prepared in acetonitrile at 200 μg/mL and diluted to 20 μg/mL in buffers at pH 1, pH 3 and pH 7.

Data set [2] deals with T1, human VEGF receptor (VEGFR-2) (Homo sapiens, UniProt P35968).
T1 construct: The cytoplasmic domain of the human VEGF receptor (VEGFR-2) was expressed; His (histidine tag); made in house; host or cells: insect cells (engineered baculovirus)
The data set is described as follows: VEGFR2 Kinase Assay. It counts as biochemical. The note with it: 3.6 μM ATP, poly-Glu-Tyr (4:1). The procedure:
The cytoplasmic domain of the human VEGF receptor (VEGFR-2) was expressed as a Hisfidine-tagged fusion protein following infection of insect cells using an engineered baculovirus. His-VEGFR-2 was purified to homogeneity, as determined by SDS-PAGE, using nickel resin chromatography. Kinase assays were performed in 96 well microtiter plates that were coated overnight with 30 μg of poly-Glu-Tyr (4:1) in 10 mM Phosphate Buffered Saline (PBS), pH 7.2-7.4. The plates were incubated with 1% BSA and then washed four times with PBS prior to starting the reaction. Reactions were carried out in 120 μL reaction volumes containing 3.6 μM ATP in kinase buffer (50 mM Hepes buffer pH 7.4, 20 mM MgCl2, 0.1 mM MnCl2 and 0.2 mM Na3VO4). Test compounds were reconstituted in 100% DMSO and added to the reaction to give a final DMSO concentration of 5%. Reactions were initiated by the addition 0.5 ng of purified protein. Following a ten minute incubation at 25° C., the reactions were washed four times with PBS containing 0.05% Tween-20. 100 μl of a monoclonal anti-phosphotyrosine antibody-peroxidase conjugate was diluted 1:10000 in PBS-Tween-20 and added to the wells for 30 minutes. Following four washes with PBS-Tween-20, 100 μl of O-phenylenediamine Dihydrochloride in Phosphate-citrate buffer, containing urea hydrogen peroxide, was added to the wells for 7 minutes as a colorimetric substrate for the peroxidase. The reaction was terminated by the addition of 100 μl of 2.5N H2SO4 to each well and read using a microplate ELISA reader set at 492 nm. IC50 values for compound inhibition were calculated directly from graphs of optical density (arbitrary units) versus compound concentration following subtraction of blank values.

Data set [3] deals with VEGF-induced EBD extravasation. Put plainly: VEGF-induced Dermal Extravasation in Guinea Pig (Miles Assay). The note with it: vehicle corn oil; for % Inhibition @ Dose (mg/Kg): 75 mg/Kg single oral dose. It counts as in vivo. The procedure:
Male Hartley guinea pigs (300-600 g) were anesthetized with isofluorane, sheared, and given a single dose of drug or the respective vehicle. The guinea pigs were dosed orally unless indicated otherwise in Table 3. Ten minutes prior to the end of drug treatment, guinea pigs were anesthetized with isofluorane, and 0.5% Evans blue dye (EBD) in PBS (13-15 mg/kg dose of EBD) was injected intravenously. After 5 minutes, triplicate intradermal injections of 100 ng rhVEGF165 in 100 μl PBS and of 100 μl PBS alone were administered on the flank. After 20 minutes, each animal was euthanized with Pentosol, and the skin containing the intradermal injection sites was removed for image analysis.
Using an analog video camera coupled to a PC, an image of each trans-illuminated skin sample was captured, and the integrated optical density of each injection site was measured using ImagePro 4. For each skin sample, the difference between the mean optical density of the VEGF sites and mean optical density of the PBS sites is the measure of VEGF-induced EBD extravasation in that animal. These measured values were averaged per study group to determine the mean VEGF-induced EBD extravasation for each experimental condition, and the group means were then compared to assess inhibition of VEGF-induced EBD extravasation in the drug-treated groups relative to the vehicle-treated controls.
(§1) To determine the dose required for 50% inhibition (ID50), the percent inhibition data was plotted as a function of oral dose, using the ‘best-fit’ analysis within MicroSoft Excel software. The ID50 value was verified visually by using the plotted data (horizontal line from 50% y value, at intersection with best-fit line drop vertical line to x axis (dose).

Data set [4] relates to laser-induced choroidal neovascularization. The data set is described as follows: Laser-induced Choroidal Neovascularization (CNV) in Rat (CNV Assay). The settings on record: vehicle corn oil. It counts as in vivo. On the procedure: CNV was induced and quantified in this model as previously described (Edelman and Castro. Exp. Eye Res. 2000; 71:523-533). On day 0, male Brown Norway rats (200-300 g) were anesthetized with 100 mg/kg Ketamine and 10 mg/kg Xylazine, and pupils were dilated with 1% Tropicamide. Using the blue-green setting of a Coherent Novus Argon Laser, 3 laser bums (90 mW for 0.1 s; 100 μm diameter) were given to each eye between the retinal vessels around the optic nerve head. Rats were dosed with test compounds in their indicated vehicles orally once daily.
On day 10, rats were sacrificed with 100% CO2, and blood vessels were labeled by vascular perfusion with 10 mg/ml FITC-dextran (MW 2×10^6). Using an epifluorescence microscope (20×) coupled to a spot digital camera and a PC, images were obtained from the flat mounts of the RPE-choroid-sclera from each eye, and the area occupied by hyperfluorescent neovessels within each laser lesion was measured using ImagePro 4 software.
as §1

T1 sequence (P35968 786-1356 limits assumed): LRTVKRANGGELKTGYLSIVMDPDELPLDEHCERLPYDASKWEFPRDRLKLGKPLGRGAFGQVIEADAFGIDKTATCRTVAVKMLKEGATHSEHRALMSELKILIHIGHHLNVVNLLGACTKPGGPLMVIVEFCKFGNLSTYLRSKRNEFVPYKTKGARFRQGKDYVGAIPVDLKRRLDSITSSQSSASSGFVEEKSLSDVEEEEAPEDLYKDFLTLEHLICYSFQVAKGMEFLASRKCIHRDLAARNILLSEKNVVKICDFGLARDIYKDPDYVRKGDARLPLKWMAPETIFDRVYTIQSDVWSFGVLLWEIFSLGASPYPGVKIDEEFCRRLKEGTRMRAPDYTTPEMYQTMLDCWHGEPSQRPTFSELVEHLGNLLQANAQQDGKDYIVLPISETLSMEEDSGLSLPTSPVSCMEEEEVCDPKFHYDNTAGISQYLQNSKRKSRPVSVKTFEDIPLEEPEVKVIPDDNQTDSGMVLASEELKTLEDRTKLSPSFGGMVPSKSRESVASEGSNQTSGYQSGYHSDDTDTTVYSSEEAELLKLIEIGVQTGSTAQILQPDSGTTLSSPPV

As for `O=C1Nc2ccccc2C1=C1OCc2ccccc21` [Example 14, 3-(3H-isobenzofuran-1-ylidene)-1,3-dihydro-indol-2-one], the IC50 in data set [1] is 110 nM.

Consider `O=C1C(=CNc2ccc(N3CCOCC3)cc2)c2ccccc2N1CN1CCCCC1` [Example 12, 3-[(4-Morpholin-4-yl-phenylamino)-methylene]-1-piperidin-1-ylmethyl-1,3-dihydro-indol-2-one], for which the half-life at 20 μg/mL was roughly 38 h in the data set “physchem” (pH 1), roughly 20 h in the data set “physchem” (pH 3) and less than 0.5 h in the data set “physchem” (pH 7.4). In addition, the 50% inhibitory concentration (IC50) in data set [1] was 432 nM; in data set [2], 478 nM. Further, the “% Inhibition @ Dose (mg/Kg)” value in data set [3] is 88% @ 75 mg/Kg; in data set [4] (80 mg/Kg (sid) oral once daily, day 10), 94% @ 80 mg/Kg (sid). For the same compound, the ID50 in data set [3] (oral) and in data set [4] (oral once daily) was 36 mg/kg in each case.

Regarding `CN(C)c1ccc2c(c1)COC2=C1C(=O)Nc2ccccc21` [Example 18, 3-(5-Dimethylamino-3H-isobenzofuran-1-ylidene)-1,3-dihydro-indol-2-one], the IC50 in data set [1] came to 22 nM; in data set [2], 31 nM.

For the compound `CN(C)c1ccc2c(c1)COC2=C1C(=O)Nc2ccc(Cl)cc21` [Example 20, 5-Chloro-3-(5-dimethylamino-3H-isobenzofuran-1-ylidene)-1,3-dihydro-indol-2-one], the values for the IC50 in data set [1] and in data set [2] were 33 nM and 22 nM, respectively.

In the case of `CN(C)c1ccc2c(c1)COC2=C1C(=O)N(CN2CCCCC2)c2ccccc21` [Example 19, 3-(5-Dimethylamino-3H-isobenzofuran-1-ylidene)-1-piperidin-1-ylmethyl-1,3-dihydro-indol-2-one], the results for the IC50 in data set [1] and in data set [2] were 120 nM and 133 nM, respectively.

Take `O=C1C(=CNc2ccc(N3CCOCC3)cc2)c2ccccc2N1CN1CCOCC1` [Example 13, 1-Morpholin-4-ylmethyl-3-[(4-morpholin-4-yl-phenylamino)-methylene]-1,3-dihydro-indol-2-one]: the IC50 came to 722 nM in data set [1] and 3860 nM in data set [2]. Moreover, in data set [3], the “% Inhibition @ Dose (mg/Kg)” value was 35% @ 75 mg/Kg.

As to `O=C1Nc2ccccc2C1=CNc1ccc(N2CCOCC2)cc1` [Example 11, 3-[(4-morpholinophenylamino)-methylene]-1,3-dihydro-indol-2-one], the IC50 was determined as 294 nM in data set [1] and 260 nM in data set [2]. For the same compound, the “% Inhibition @ Dose (mg/Kg)” value in data set [3] came out at 40% @ 75 mg/Kg.

One may read the IC50 as the concentration needed to halve the response being measured. In general, half-life refers to the time needed for the level to fall by half in the phase considered. A high value points to slow decline.
